For data set [1] the following is noted: collected values of NSAIDs; cited from earlier work.
Data set [2] relates to Cyclooxygenase 2/Cyclooxygenase 1. As to conditions: cited from earlier work.
For data set [3] the following is noted: collected values of NSAIDs; cited from earlier work. The source holds these as a separate data set.
The subject of data set [4] is Carageenan - induced rat paw edema. The data set is described as follows: Carageenan-induced rat paw edema (anti-inflammatory activity). The format is in vivo. As to conditions: in words, compared to parent drug.
The conditions of data set [5]: in words; pre-treatment; Navarro et al. 1994; cited from earlier work.
The mark [6] stands for this setting: IC50 (µg/ml) of COX2 divided by IC50 for COX1, values below 1 indicate selectivity for COX2, from Drugs of Today Vol. 32 Suppl. D 1996 p. 5.

Each structure is given as a SMILES string. Read-outs that look alike come from different tables or passages of the source.

For the compound `CC(=O)Oc1ccccc1C(=O)O` [Acetylsalicylic acid], the 50% effective dose (ED50) in data set [1] was 135.0 mg/kg. Moreover, the “Cyclooxygenase 2/Cyclooxygenase 1 ratio” value in data set [2] (setting [6]) was 166. Further, in data set [3], the 50% lethal dose (LD50) was 1520 mg/kg and the “Therapeutic Index” value is 14.

On to `CC(C(=O)O)c1ccc2c(c1)[nH]c1ccc(Cl)cc12` (stereo not drawn) [Carprofen], for which the “Cyclooxygenase 2/Cyclooxygenase 1 ratio” value in data set [2] is reported as 1.

With `O=C([O-])Cc1ccccc1Nc1c(Cl)cccc1Cl.O=C([O-])Cc1ccccc1Nc1c(Cl)cccc1Cl.[Zn+2]` [Diclofenac-Zinc], the anti-inflammatory activity entry is listed as “much more than the parent drug” in data set [4] (listed as Diclofenac-Zinc complex) and “more potent anti-inflammatory activity than diclofenac” in data set [4] (listed as Zinc-diclofenac complex).

On to `O=C(c1ccccc1)c1cccc(NS(=O)(=O)C(F)F)c1` [Diflumidone], for which the ED50 in data set [1] is 38.0 mg/kg. Moreover, in data set [3], the LD50 is given as 750 mg/kg and the “Therapeutic Index” value is 20.

For the compound `O=C(O)c1ccccc1Nc1cccc(C(F)(F)F)c1` [Flufenamic acid], the 50% effective dose (ED50) in data set [1] was 14.7 mg/kg. In addition, in data set [3], the LD50 was 249 mg/kg and the “Therapeutic Index” value was 17.

Consider `CC(C(=O)O)c1ccc(-c2ccccc2)c(F)c1` (stereo not drawn) [Flurbiprofen], for which the “Cyclooxygenase 2/Cyclooxygenase 1 ratio” value in data set [2] is 1.3.

Take `CC(C)Cc1ccc(C(C)C(=O)O)cc1` (stereo not drawn) [Ibuprofen]: in data set [1], the ED50 was 13.5 mg/kg. Moreover, the LD50 in data set [3] is recorded as 923 mg/kg.

Regarding `COc1ccc2c(c1)c(CC(=O)O)c(C)n2C(=O)c1ccc(Cl)cc1` [Indomethacin], the ED50 in data set [1] is reported as 2.95 mg/kg. The LD50 in data set [3] is given as 210 mg/kg.

On to `COc1ccc2cc([C@H](C)C(=O)O)ccc2c1` [Naproxen, (+) -2-(6-Methoxy-2-haphthyl) propionic acid], for which, in data set [1], the ED50 is on record as 2.10 mg/kg.

Turning to `CS(=O)(=O)Nc1ccc([N+](=O)[O-])cc1Oc1ccccc1` [Nimesulide], in data set [1], the ED50 is given as 1.25 mg/kg.

With `CC(=O)Nc1ccc(O)cc1` [Paracetamol], the “Cyclooxygenase 2/Cyclooxygenase 1 ratio” value in data set [2] (setting [6]) is 7.4.

For `CN1C(C(=O)Nc2ccccn2)=C(O)c2ccccc2S1(=O)=O` [Piroxicam], the “Cyclooxygenase 2/Cyclooxygenase 1 ratio” value in data set [2] was 250.

Take `O=C([O-])c1ccccc1O.[Na+]` [Sodium salicylate]: the “Cyclooxygenase 2/Cyclooxygenase 1 ratio” value in data set [2] (setting [6]) was 2.8.

Consider `CC1=C(CC(=O)O)c2cc(F)ccc2/C1=C\c1ccc([S+](C)[O-])cc1` (stereo not drawn) [Sulindac], for which the “Cyclooxygenase 2/Cyclooxygenase 1 ratio” value in data set [2] (setting [6]) is recorded as 100.

With `Cc1c(Cl)cccc1Nc1ccccc1C(=O)O` [Tolfenamic acid], in data set [2] (setting [6]), the “Cyclooxygenase 2/Cyclooxygenase 1 ratio” value was 16.7.

In the case of `Cc1ccc(C(=O)c2ccc(CC(=O)O)n2C)cc1` [Tolmetin], in data set [2] (setting [6]), the “Cyclooxygenase 2/Cyclooxygenase 1 ratio” value is given as 175.

In the case of `CC(=O)NCCCCCC(=O)[O-].CC(=O)NCCCCCC(=O)[O-].[Zn+2]` [Zinc acexamate], in data set [5], the “overall Severity of lessions induced by NSAIDS” value is “significantly decreased”.

By ED50 is commonly meant the dose at which the effect has come halfway, by size or by number of responders. One may read the LD50 as the dose at which mortality reaches 50%.

The values above are taken from patent EP0987023A1, “Transition metal complexes of non steroidal anti-inflammatory drugs” (PANACEA BIOTEC LIMITED, priority 1998, dated 2000).
